Data set [1] has as its target T1, progesterone receptor (PR) (Homo sapiens, UniProt P06401).
T1 construct: in live, intact (whole) cells, using the human breast carcinoma T47D cell line; endogenous in cells; host or cells: T47D human breast carcinoma cells
T1 sequence (P06401 1-933): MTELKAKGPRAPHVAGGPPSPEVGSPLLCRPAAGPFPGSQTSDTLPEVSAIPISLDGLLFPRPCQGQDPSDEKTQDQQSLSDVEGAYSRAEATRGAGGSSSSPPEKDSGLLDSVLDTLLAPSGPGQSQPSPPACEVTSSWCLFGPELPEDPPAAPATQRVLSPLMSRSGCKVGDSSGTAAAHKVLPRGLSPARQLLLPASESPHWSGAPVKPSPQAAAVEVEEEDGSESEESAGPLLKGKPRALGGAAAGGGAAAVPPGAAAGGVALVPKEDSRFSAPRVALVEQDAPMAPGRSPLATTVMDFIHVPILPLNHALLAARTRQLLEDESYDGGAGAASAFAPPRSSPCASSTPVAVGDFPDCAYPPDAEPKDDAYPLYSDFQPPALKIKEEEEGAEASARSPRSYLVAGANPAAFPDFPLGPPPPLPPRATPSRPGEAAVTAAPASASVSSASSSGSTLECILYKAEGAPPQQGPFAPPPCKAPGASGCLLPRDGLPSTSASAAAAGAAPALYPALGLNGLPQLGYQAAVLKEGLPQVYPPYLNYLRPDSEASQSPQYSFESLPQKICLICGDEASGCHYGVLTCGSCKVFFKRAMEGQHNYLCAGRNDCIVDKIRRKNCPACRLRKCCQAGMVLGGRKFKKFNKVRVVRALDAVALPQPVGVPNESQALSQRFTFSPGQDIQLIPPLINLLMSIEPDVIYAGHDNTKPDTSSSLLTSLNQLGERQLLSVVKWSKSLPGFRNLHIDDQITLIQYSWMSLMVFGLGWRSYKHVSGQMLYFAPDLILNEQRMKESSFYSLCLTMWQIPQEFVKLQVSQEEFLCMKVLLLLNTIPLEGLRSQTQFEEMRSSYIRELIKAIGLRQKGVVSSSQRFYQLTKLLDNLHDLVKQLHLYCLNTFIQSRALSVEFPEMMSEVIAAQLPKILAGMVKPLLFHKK
Put plainly: Progesterone receptor whole cell competition binding assay using T47D cells. To be noted: intact T47D cells, 3 nM 3H-progesterone, 3 hours at 37° C. The procedure:
The purpose of this example is to evaluate the progesterone receptor (PR) binding activity of progestins or antiprogestins in live, intact (whole) cells, using the human breast carcinoma T47D cell line and ^3H-progesterone as the labeled ligand.
A. Reagents: • Culture medium: • (i) 5% RC which is phenol red free Dulbecco's Modified Eagles Medium (DMEM):F12 (1:1) (GIBCO, BRL) supplemented with 5% (v/v) charcoal stripped fetal bovine serum (not heat-inactivated), 100 U/mL penicillin, 100 μg/mL streptomycin, and 2 mM of the GlutaMax™ reagent (GIBCO, BRL) • (ii) 10% RC is 5% RC supplemented with 10% (v/v) FBS • ^3H-Progesterone: Perkin Elmer Life Science, cat# NET-381 (typically around 102 Ci/mmol) • Liquid Scintillation Cocktail: Beckman Coulter, the Ready-Safe™ reagent; cat# 141349 • Tissue Culture Plates: 96 well, clear bottom, white, plates (VWR Part # 29443-150 or Perkin Elmer Part # 3983498)
B. T47D Cell Culture: • T47D cells are maintained in 10% RC media at 37° C. in a 5% CO2/humidified atmosphere and need to be split twice weekly for proper response. Cells are plated in 10% RC the day before binding assay at 50,000 cells per well in the white, clear bottom plates purchased through VWR or Perkin Elmer.
Cells plated the day prior to the assay in white clear bottom plates are used. A master compound plate is set up containing control and test compounds at 20X final desired concentration for the competition binding. A typical dose range of 20X concentrations are (in nM); 200,000; 20,000; 6000; 2000; 600; 200; 20; and 2. Final concentrations are then (in nM); 10,000; 1000; 300; 100; 30; 10; 1; 0.1. Control compounds are typically run 10-fold lower than this and include a 0, or vehicle, control well. A stock of 60 nM ^3H-progesterone (20X) is also prepared at a volume needed of 10 μL per well.
Media on cells are replaced with 180 μL of 5% RC. Ten microliters (10 μL) of 60 nM ^3H-progesterone (for final concentration of 3 nM) is added immediately followed by 10 μL of 20X test or control compounds. Compounds are incubated for 3 hours at 37° C. A time course study found no difference between 2 and 4 hours incubation.
Following incubation, media is carefully removed and cells are washed 3X with 200 μL 5% RC each wash. Fifty microliters of liquid scintillation cocktail is added and the plates are shaken vigorously for a minimum of 15 minutes. Plates are read on the Wallac Microbeta® 1450 plate reader.
D. Analysis of Results: • Square root-transformed data are used for analysis of variance and calculation of IC50. SAS software (SAS Institute, Inc.) is used for all the statistical analysis.
E. Reference Compounds: • Progesterone is used as a reference progestin and RU486 as a reference antiprogestin.

Data set [2] deals with alkaline phosphatase activity in T47D cells. Briefly: Effects of progestins and antiprogestins on alkaline phosphatase activity in T47D cells. It is filed as cell-based. As to conditions: Homo sapiens, antagonist mode in the presence of 1 nM progesterone, 24 hours. The method, then: The purpose of this example is to identify progestins or antiprogestins by determining a compound's effect on alkaline phosphatase activity in T47D cells.
A. Reagents: • Culture medium: Dulbecco's Modified Eagle Medium (DMEM):F12 (1:1) (GIBCO, BRL) supplemented with 5% (v/v) charcoal stripped fetal bovine serum (not heat-inactivated), 100 U/mL penicillin, 100 μg/mL streptomycin, and 2 mM of the GlutaMax® reagent (GIBCO, BRL). • Alkaline phosphatase assay buffer: • I. 0.1M Tris-HCl, pH 9.8, containing 0.2% Triton® X-100 reagent • II. 0.1M Tris-HCl, pH 9.8, containing 4 mM p-nitrophenyl phosphate (Sigma).
Frozen T47D cells are thawed in a 37° C. water bath and diluted to 280,000 cells/mL in culture medium. To each well in a 96-well plate (Falcon, Becton Dickinson Labware), was added 180 μL of diluted cell suspension. Twenty μL of reference or test compounds diluted in the culture medium is then added to each well. When testing for progestin antagonist activity, reference antiprogestins or test compounds are added in the presence of 1 nM progesterone. The cells are incubated at 37° C. in a 5% CO2/humidified atmosphere for 24 hours. For high throughput screening, one concentration of each compound will be tested at 0.3 μg/mL. Based on an average molecular weight of 300 g/mol for the compounds in the library, the concentration is approximately 1 μM. Compounds active in this assay can be tested in dose response assays to determine EC50 and IC50.
C. Alkaline Phosphatase Enzyme Assay: • At the end of treatment, the medium is removed from the plate. Fifty μL of assay buffer I is added to each well. The plates are shaken in a titer plate shaker for 15 minutes. Then 150 μL of assay buffer II is added to each well. Optical density measurements are taken at 5 minute intervals for 30 minutes at a test wavelength of 405 nm.
D. Analysis of Results: Analysis of Dose-Response Data • For reference and test compounds, a dose response curve is generated for dose (X-axis) vs. the rate of enzyme reaction (slope) (Y-axis). Square root-transformed data are used for analysis of variance and nonlinear dose response curve fitting for both agonist and antagonist modes. Huber weighting is used to down-weight the effects of outliers. EC50 or IC50 values are calculated from the retransformed values. JMP® software (SAS Institute, Inc.) is used for both one-way analysis of variance and non-linear dose response analysis in both single dose and dose response studies.
E. Reference Compounds • Progesterone and trimegestone are reference progestins and RU486 is the reference antiprogestin. All reference compounds are run in full dose response curves and the EC50 and IC50 values are calculated.

SMILES strings stand for the structures.

Usually melting point stands for the temperature, or range, at which the solid turns liquid. One may read the IC50 as the concentration at which inhibition is half-maximal.

Consider `C/C(=C\C#N)c1ccc2c(c1)C(C)(C)OC(=O)N2` [Example 13, (2E)-3-(4,4-Dimethyl-2-oxo-1,4-dihydro-2H-3,1-benzoxazin-6-yl)but-2-enenitrile], for which the melting point was 230 to 232 °C. The half-inhibitory concentration (IC50) in data set [1] turned out to be 0.0481 µM. For the same compound, the IC50 in data set [2] worked out at 0.0382 µM.
